pIC50: −log10 of the molar value.
Molecular target: human PAD4 (hPAD4) (Homo sapiens (Human), UniProt Q9UM07)
Assay: RFMS Human PAD4 Functional Assay 1
Format: biochemical
Conditions: RFMS assay 1; 5 nM hPAD4, 250 μM BAEE substrate, 50 μM calcium, 37° C.
Procedure, shortened: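 Citrullination product read by RapidFire triple-quad MRM against a modified-citrulline internal standard, after TCA stop and 30 min phenyl glyoxal step at 37 °C. Reaction: 250 μM BAEE, 5 nM human PAD4, 90 min at 37 °C, pH 7.5 HEPES buffer with 50 μM calcium and 5 μM TPEN, following 30 min compound–enzyme preincubation (max 50 μM).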

Chain of human PAD4 (hPAD4) (Q9UM07 whole entry): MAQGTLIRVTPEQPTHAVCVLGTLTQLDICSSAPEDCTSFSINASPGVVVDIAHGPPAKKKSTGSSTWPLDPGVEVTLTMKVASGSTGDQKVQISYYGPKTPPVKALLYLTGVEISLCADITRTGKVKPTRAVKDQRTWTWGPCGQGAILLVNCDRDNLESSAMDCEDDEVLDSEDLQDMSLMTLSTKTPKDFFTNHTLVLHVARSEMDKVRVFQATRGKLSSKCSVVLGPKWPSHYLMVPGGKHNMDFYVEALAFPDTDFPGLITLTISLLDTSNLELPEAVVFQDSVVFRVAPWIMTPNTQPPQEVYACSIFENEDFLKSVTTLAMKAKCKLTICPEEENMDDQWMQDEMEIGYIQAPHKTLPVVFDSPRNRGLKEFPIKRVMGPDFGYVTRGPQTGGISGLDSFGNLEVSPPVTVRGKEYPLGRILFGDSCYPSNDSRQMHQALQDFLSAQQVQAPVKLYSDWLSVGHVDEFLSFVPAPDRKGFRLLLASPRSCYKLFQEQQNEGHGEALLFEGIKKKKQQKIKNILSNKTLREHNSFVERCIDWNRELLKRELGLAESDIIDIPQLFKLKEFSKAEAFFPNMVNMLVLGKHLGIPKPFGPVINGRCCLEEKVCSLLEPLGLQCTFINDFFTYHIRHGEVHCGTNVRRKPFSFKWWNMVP

SMILES | pIC50
Cc1c(-c2cc3ccc(N4CCC(O)CC4)nc3n2CC2CC2)nn2cc(C(=O)N3CC4CCC3[C@@H]4N)ccc12 (stereo partly drawn) [Example 77, ((7R)-7-Amino-2-azabicyclo[2.2.1]heptan-2-yl)(2-(1-(cyclopropylmethyl)-6-(4-hydroxypiperidin-1-yl)-1H-pyrrolo[2,3-b]pyridin-2-yl)-3-methylpyrazolo[1,5-a]pyridin-6-yl)methanone] | 7.11
Cc1c(-c2cc3ccc(N4CCC[C@@H](O)C4)nc3n2CC2CC2)nn2cc(C(=O)N3CC4CCC3[C@@H]4N)ccc12 (stereo partly drawn) [Example 78, ((7R)-7-Amino-2-azabicyclo[2.2.1]heptan-2-yl)(2-(1-(cyclopropylmethyl)-6-((R)-3-hydroxypiperidin-1-yl)-1H-pyrrolo[2,3-b]pyridin-2-yl)-3-methylpyrazolo[1,5-a]pyridin-6-yl)methanone] | 6.84
COC1CN(c2ccc3cc(-c4nn5cc(C(=O)N6CC7CCC6[C@@H]7N)ccc5c4C)n(CC4CC4)c3n2)C1 (stereo partly drawn) [Example 79, ((7R)-7-Amino-2-azabicyclo[2.2.1]heptan-2-yl)(2-(1-(cyclopropylmethyl)-6-(3-methoxyazetidin-1-yl)-1H-pyrrolo[2,3-b]pyridin-2-yl)-3-methylpyrazolo[1,5-a]pyridin-6-yl)methanone] | 6.67
Cc1c(-c2cc3cccnc3n2CC2CC2)nn2cc(C(=O)N3C[C@H](N)C[C@@H](F)C3)ccc12 [Example 80, ((3R,5R)-3-Amino-5-fluoropiperidin-1-yl)(2-(1-(cyclopropylmethyl)-1H-pyrrolo[2,3-b]pyridin-2-yl)-3-methylpyrazolo[1,5-a]pyridin-6-yl)methanone] | 5.79
Cc1c(-c2cc3ccc(-c4ccc5c(c4)CNC5=O)nc3n2CC2CC2)nn2cc(C(=O)N3C[C@H](N)C[C@@H](F)C3)ccc12 [Example 81, 5-(2-(6-((3R,5R)-3-Amino-5-fluoropiperidine-1-carbonyl)-3-methylpyrazolo[1,5-a]pyridin-2-yl)-1-(cyclopropylmethyl)-1H-pyrrolo[2,3-b]pyridin-6-yl)isoindolin-1-one] | 6.42
Cc1ccc2cc(-c3nn4cc(C(=O)N5C[C@H](N)C[C@@H](F)C5)ccc4c3C)n(CC3CC3)c2n1 [Example 82, ((3R,5R)-3-Amino-5-fluoropiperidin-1-yl)(2-(1-(cyclopropylmethyl)-6-methyl-1H-pyrrolo[2,3-b]pyridin-2-yl)-3-methylpyrazolo[1,5-a]pyridin-6-yl)methanone] | 6.43
Cc1c(-c2cc3ccc(-c4ccc5c(c4)C(=O)NC5)nc3n2CC2CC2)nn2cc(C(=O)N3C[C@H](N)C[C@@H](F)C3)ccc12 [Example 83, 6-(2-(6-((3R,5R)-3-Amino-5-fluoropiperidine-1-carbonyl)-3-methylpyrazolo[1,5-a]pyridin-2-yl)-1-(cyclopropylmethyl)-1H-pyrrolo[2,3-b]pyridin-6-yl)isoindolin-1-one] | 6.42
Cc1c(-c2cc3ccc(-c4ccc(C(N)=O)c(F)c4)nc3n2CC2CC2)nn2cc(C(=O)N3C[C@H](N)C[C@@H](F)C3)ccc12 [Example 84, 4-(2-(6-((3R,5R)-3-Amino-5-fluoropiperidine-1-carbonyl)-3-methylpyrazolo[1,5-a]pyridin-2-yl)-1-(cyclopropylmethyl)-1H-pyrrolo[2,3-b]pyridin-6-yl)-2-fluorobenzamide] | 6.21
Cc1c(-c2cc3ccc(-c4ccc(C(N)=O)c(Cl)c4)nc3n2CC2CC2)nn2cc(C(=O)N3C[C@H](N)C[C@@H](F)C3)ccc12 [Example 85, 4-(2-(6-((3R,5R)-3-Amino-5-fluoropiperidine-1-carbonyl)-3-methylpyrazolo[1,5-a]pyridin-2-yl)-1-(cyclopropylmethyl)-1H-pyrrolo[2,3-b]pyridin-6-yl)-2-chlorobenzamide] | 6.49
Cc1c(-c2cc3ccc(-c4cccc(O)c4F)nc3n2CC2CC2)nn2cc(C(=O)N3C[C@H](N)C[C@@H](F)C3)ccc12 [Example 86, ((3R,5R)-3-Amino-5-fluoropiperidin-1-yl)(2-(1-(cyclopropylmethyl)-6-(2-fluoro-3-hydroxyphenyl)-1H-pyrrolo[2,3-b]pyridin-2-yl)-3-methylpyrazolo[1,5-a]pyridin-6-yl)methanone] | 6.66
COC1CCN(c2ccc3cc(-c4nn5cc(C(=O)N6C[C@H](N)C[C@@H](F)C6)ccc5c4C)n(CC4CC4)c3n2)CC1 [Example 87, ((3R,5R)-3-Amino-5-fluoropiperidin-1-yl)(2-(1-(cyclopropylmethyl)-6-(4-methoxypiperidin-1-yl)-1H-pyrrolo[2,3-b]pyridin-2-yl)-3-methylpyrazolo[1,5-a]pyridin-6-yl)methanone] | 5.64
Cc1c(-c2cc3ccc(N4CCC(O)CC4)nc3n2CC2CC2)nn2cc(C(=O)N3C[C@H](N)C[C@@H](F)C3)ccc12 [Example 88, ((3R,5R)-3-Amino-5-fluoropiperidin-1-yl)(2-(1-(cyclopropylmethyl)-6-(4-hydroxypiperidin-1-yl)-1H-pyrrolo[2,3-b]pyridin-2-yl)-3-methylpyrazolo[1,5-a]pyridin-6-yl)methanone] | 5.78
Cc1c(-c2cc3ccc(-c4ccc5c(c4)C(=O)NC5)cc3n2CC2CC2)nn2cc(C(=O)N3CC4CCC3[C@@H]4N)ccc12 (stereo partly drawn) [Example 89, 6-(2-(6-((7R)-7-Amino-2-azabicyclo[2.2.1]heptane-2-carbonyl)-3-methylpyrazolo[1,5-a]pyridin-2-yl)-1-(cyclopropylmethyl)-1H-indol-6-yl)isoindolin-1-one] | 7.32
Cc1c(-c2cc3ccc(-c4ccc5c(c4)CNC5=O)cc3n2CC2CC2)nn2cc(C(=O)N3CC4CCC3[C@@H]4N)ccc12 (stereo partly drawn) [Example 90, 5-(2-(6-((7R)-7-Amino-2-azabicyclo[2.2.1]heptane-2-carbonyl)-3-methylpyrazolo[1,5-a]pyridin-2-yl)-1-(cyclopropylmethyl)-1H-indol-6-yl)isoindolin-1-one] | 7.92
Cc1c(-c2cc3ccc(N4CC(F)(CO)C4)cc3n2CC2CC2)nn2cc(C(=O)N3CC4CCC3[C@@H]4N)ccc12 (stereo partly drawn) [Example 91, ((7R)-7-Amino-2-azabicyclo[2.2.1]heptan-2-yl)(2-(1-(cyclopropylmethyl)-6-(3-fluoro-3-(hydroxymethyl)azetidin-1-yl)-1H-indol-2-yl)-3-methylpyrazolo[1,5-a]pyridin-6-yl)methanone] | 6.22
Cc1c(-c2cc3ccc(-c4cccc(O)c4F)cc3n2CC2CC2)nn2cc(C(=O)N3C[C@H](N)C[C@@H](F)C3)ccc12 [Example 92, ((3R,5R)-3-Amino-5-fluoropiperidin-1-yl)(2-(1-(cyclopropylmethyl)-6-(2-fluoro-3-hydroxyphenyl)-1H-indol-2-yl)-3-methylpyrazolo[1,5-a]pyridin-6-yl)methanone] | 6.17
Cc1c(-c2cc3ccc(-c4ccc(C(N)=O)c(F)c4)cc3n2CC2CC2)nn2cc(C(=O)N3C[C@H](N)C[C@@H](F)C3)ccc12 [Example 93, 4-(2-(6-((3R,5R)-3-Amino-5-fluoropiperidine-1-carbonyl)-3-methylpyrazolo[1,5-a]pyridin-2-yl)-1-(cyclopropylmethyl)-1H-indol-6-yl)-2-fluorobenzamide] | 6.66
Cc1c(-c2cc3ccc(-c4ccc(O)c(F)c4)cc3n2CC2CC2)nn2cc(C(=O)N3C[C@H](N)C[C@@H](F)C3)ccc12 [Example 94, ((3R,5R)-3-Amino-5-fluoropiperidin-1-yl)(2-(1-(cyclopropylmethyl)-6-(3-fluoro-4-hydroxyphenyl)-1H-indol-2-yl)-3-methylpyrazolo[l,5-a]pyridin-6-yl)methanone] | 6.03

Reference: patent publication US12473304B2, “Heterocyclic PAD4 inhibitors” (BRISTOL-MYERS SQUIBB COMPANY, priority 2020, dated 2025)
